Results as given in EP2342182B1 (H. Lundbeck A/S, priority 2008, dated 2010).

Legend:
[1] = Free fraction in plasma (equilibrium dialysis); format: in vitro ADME; settings: human EDTA plasma, pH 7.4 buffer, 37 °C
Protocol: Example 14 Free fraction in plasma
Free fraction in human plasma has been determined by equilibrium dialysis between human EDTA plasma (Bioreclamation) and 0.1 M NaH2PO4 buffer adjusted to pH 7.4. The experiment was performed in a 96 well dialysis plate (HTD96b, htdialysis). Plasma was frozen at -80 °C immediately after purchasing. Membranes (HTD 96a/b Dialysis Membrane Strips, MWCO 12-14 K, htdialysis) were soaked for one hour in pure PBS and kept in PBS/EtOH 80:20 (v/v) in a closed bottle at 5 °C until use.
Plasma was thawed in cold water and centrifuged 5 min at 3000 rpm before use to move potential clots. The plasma supernatant was transferred to a new tube. Test compounds were diluted to 0.2 mM in DMSO. Plasma was spiked 1:100 with test compound (final concentration 2 µM).
The dialysis plate was assembled with membranes according to the instructions whereupon 150 µL phosphate buffer was loaded to the lower side of the wells immediately after assembling and spiked plasma was loaded to the upper side of the wells. The plate was sealed with sealing tape and incubated at 37 °C with gently shaking in 5 hours.
After 5 hours incubation the plate was removed from the incubator. The sealing tape was carefully removed and 70 µL from the buffer wells ("lower" side) were transferred to 96 well plates for analysis.
Samples were analysed by LC-MS-MS on a Sciex API 4000 (Applied Biosystems). […]

human NK3 receptor [2] = biological target: T1, human NK3 receptor (Homo sapiens, UniProt P29371); assay: NK3 receptor efficacy and potency assay (FLIPR Calcium 4); format: cell-based; settings: read-out: Potency (cIC50/nM)
T1 construct: expressed in transfected cells; membranes prepared from them
T1 sequence (P29371 1-465): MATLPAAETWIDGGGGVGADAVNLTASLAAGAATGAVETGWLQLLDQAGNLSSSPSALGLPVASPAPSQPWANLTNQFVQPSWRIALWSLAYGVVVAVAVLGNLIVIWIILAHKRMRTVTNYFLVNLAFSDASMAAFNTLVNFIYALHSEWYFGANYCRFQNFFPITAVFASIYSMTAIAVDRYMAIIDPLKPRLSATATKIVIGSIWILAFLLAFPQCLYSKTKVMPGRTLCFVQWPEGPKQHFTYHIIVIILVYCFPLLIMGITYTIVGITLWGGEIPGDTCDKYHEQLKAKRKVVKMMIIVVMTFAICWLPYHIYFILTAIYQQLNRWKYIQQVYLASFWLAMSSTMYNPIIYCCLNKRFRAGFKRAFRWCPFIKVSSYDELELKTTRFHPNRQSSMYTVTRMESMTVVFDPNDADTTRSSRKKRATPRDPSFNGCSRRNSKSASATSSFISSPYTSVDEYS
Protocol: Example 13 NK3 receptor efficacy and potency assay
BHK cells stably expressing the human NK3 receptor were seeded in 100 µl media in black walled clear-base 96-wells plates (Costar) aiming at a confluency of 95-100% at the day of assay. The assay was performed according to the FLIPR Calcium 4 Assay kit (Molecular Devices). At the day of the assay, the media was removed and the cells were washed once with the HBSS buffer (Hanks BSS buffer, pH 7,4 containing 20 mM Hepes) before 100 µl of a solution of the calcium assay reagent dissolved in the HBSS buffer containing 2,5 mM probinicid was added to the cells. The plates were incubated for 60 min at 34°C, 10% CO2 before use in the FLIPR for examination of fluorescence.
For efficacy and potency evaluation of compounds, these were diluted in HBSS buffer prior to test. For test of agonist activity, 25 µl of the diluted compound solution was added and the plate was analyzed for 5 minutes in the FLIPR. For test of antagonist activity, the plate was incubated for another 45 minutes before addition of 25 µl of the EC85 concentration ofNKB (app. 4 nM) as described above. The plates were subsequently analyzed for 5 minutes before the assay was terminated. The maximal increase in fluorescence over background following each ligand addition was determined.

human NK3 receptor [3] = biological target: T1, human NK3 receptor; assay: NK3 receptor binding assay (SPA-based competition binding with 125I-NKB); settings: read-out: Affinity (Ki/nM); note: competition with app 0.02 nM 125I-NKB
Protocol: Example 12 NK3 receptor binding assay
Membranepreparation: BHK cells stably expressing the human NK3 receptor were seeded in harvesting plates in Dulbeccos MEM containing GlutaMax (862 mg/l), 1mM sodium pyruvate, 10% fetal calf serum, 1% Pen/Strep, 1 mg/ml G418 and were grown at 34 °C in a humidified atmosphere containing 10% CO2. To increase receptor expression, 10 µM trichotatin A was added to the media 24 hours before harvest of the cells at a confluency of app 90%. Prior to the harvesting, the cells were washed twice with PBS without Mg^2+ og Ca^2+ and subsequently scrapped of in 10 ml PBS pr harvesting plate. The cells suspension were centrifuged at 1500xG in three minutes before resuspension in 15 mM Tris-HCl pH 7,5 buffer containing 2 mM MgCl2; 0,3 mM EDTA and 1 mM EGTA (buffer A). The cell suspention was homogenised and subsequently centrifuged at 40000xG in 30 minutes. The membrane-pellet was resuspended in buffer A containing 250 mM sucrose, alliquoted and stored at ― 80 °C.
Affinity assay description: The assay was performed as a SPA-based competition-binding assay in a 50 mM Tris pH 7.4 assay buffer containing 120 mM NaCl, 3 mM MnCl2, 40 µg/ml bacitracin, 2 µg/ml Chymostatin, 1 µg/ml Phosphoramidon and 4 µg/ml Leupeptin. […] The assay plate was subsequently under agitation incubated for 90 min at RT. The plate was centrifugated 10 minutes at 500xG and counted in a topcounter 5 minuttes pr well.
The total binding, which comprised less than 5 % of added radioligand, was defined using assay buffer whereas the non-specific binding was defined in the presence of 1 µM osanetant. The non-specific binding constituted app 5 % of the total binding.

Row | SMILES | fraction unbound at 5 h, 2 µM [1] | IC50 (human NK3 receptor [2]) | Ki (human NK3 receptor [3])
1 | CCNn1c(C)c(C(=O)N[C@@H](CC)c2ccccc2)c2ccccc2c1=O [Example 2a, 2-Ethylamino-3-methyl-1-oxo-1,2-dihydro-isoquinoline-4-carboxylic acid ((S)-1-phenylpropyl)-amide] | 0.162 | – | –
2 | CCNn1c(C)c(C(=O)N[C@@H](CC)c2ccccc2)c2cccc(Cl)c2c1=O [Example 2h, 8-Chloro-2-ethylamino-3-methyl-1-oxo-1,2-dihydro-isoquinoline-4-carboxylic acid ((S)-1-phenyl-propyl)-amide] | 0.062 | 36 nM | 31 nM
3 | CCNn1c(C)c(C(=O)N[C@H](c2ccccc2)C2CC2)c2cccc(F)c2c1=O [Example 2i, 2-Ethylamino-8-fluoro-3-methyl-1-oxo-1,2-dihydro-isoquinoline-4-carboxylic acid ((S)-cyclopropyl-phenyl-methyl)-amide] | 0.134 | – | 27 nM
4 | CCCNn1c(C)c(C(=O)N[C@H](c2ccccc2)C2CC2)c2cccc(F)c2c1=O [Example 2k, 8-Fluoro-3-methyl-1-oxo-2-propylamino-1,2-dihydro-isoquinoline-4-corboxylic acid ((S)-cyclopropyl-phenyl-methyl)-amide] | 0.124 | – | –
5 | CCNn1c(C)c(C(=O)N[C@H](c2cccc(F)c2)C2CCC2)c2cccc(F)c2c1=O [Example 2s, 2-Ethylamino-8-fluoro-3-methyl-1-oxo-1,2-dihydro-isoquinoline-4-carboxylic acid [(S)-cyclobutyl-(3-fluoro-phenyl)-methyl]-amide] | 0.06 | – | 4.7 nM
6 | CCNn1c(C)c(C(=O)N[C@@H](CC)c2ccccc2)c2cccc(F)c2c1=O [Example 2t, 2-Ethylamino-8-fluoro-3-methyl-1-oxo-1,2-dihydro-isoquinoline-4-carboxylic acid ((S)-1-phenyl-propyl)-amide] | 0.146 | – | 43 nM
7 | CCNn1c(C)c(C(=O)N[C@H](c2ccc(F)cc2)C2CC2)c2cccc(F)c2c1=O [Example 2w, 2-Ethylamino-8-fluoro-3-methyl-1-oxo-1,2-dihydro-isoquinoline-4-carboxylic acid [(S)-cyclopropyl-(4-fluoro-phenyl)-methyl]-amide] | 0.132 | – | 28 nM
8 | Cc1c(C(=O)N[C@H](c2cccc(F)c2)C2CCC2)c2cccc(F)c2c(=O)n1CCO [Example 4p, 8-Fluoro-2-(2-hydroxy-ethyl)-3-methyl-1-oxo-1,2-dihydro-isoquinoline-4-carboxylic acid [(S)-cyclobutyl-(3-fluoro-phenyl)-methyl]-amide] | – | 380 nM | 160 nM
9 | CCOn1c(C)c(C(=O)N[C@H](c2cccc(F)c2)C2CCC2)c2cccc(F)c2c1=O [Example 4t, 2-Ethoxy-8-fluoro-3-methyl-1-oxo-1,2-dihydro-isoquinoline-4-carboxylic acid [(S)-cyclobutyl-(3-fluoro-phenyl)-methyl]-amide] | – | 180 nM | 68 nM
10 | Cc1c(C(=O)N[C@H](c2cccc(F)c2)C2CCC2)c2cccc(F)c2c(=O)n1C[C@H]1CCCN1 [Example 5d, 8-Fluoro-3-methyl-1-oxo-2-(R)-1pyrrolidin-2-ylmethyl-1,2-dihydro-isoquinoline-4-carboxylic acid [(S)-cyclobutyl-(3-fluoro-phenyl)-methyl]-amide] | – | 16 nM | 25 nM
11 | CCCn1c(CN2CCNCC2)c(C(=O)N[C@H](c2cccc(F)c2)C2CC2)c2cccc(F)c2c1=O [Example 6a, 8-Fluoro-1-oxo-3-piperazin-1-ylmethyl-2-propyl-1,2-dihydro-isoquinoline-4-carboxylic acid [(S)-cyclopropyl-(3-fluoro-phenyl)-methyl]-amide] | – | 7 nM | 13 nM
12 | CCCn1c(CN2CCNCC2)c(C(=O)N[C@H](c2cccc(F)c2)C2CCC2)c2cccc(F)c2c1=O [Example 6b, 8-Fluoro-1-oxo-3-piperazin-1-ylmethyl-2-propyl-1,2-dhydro-isoquinoline-4-carboxylic acid [(S)-cyclobutyl-(3-fluoro-phenyl)-methyl]-amide] | – | 18 nM | 6.6 nM
13 | CCCn1c(CN2CCCC2=O)c(C(=O)N[C@H](c2cccc(F)c2)C2CC2)c2cccc(F)c2c1=O [Example 6e, 8-Fluoro-1-oxo-3-(2-oxo-pyrrolidin-1-ylmethyl)-2-propyl-1,2-dihydro-isoquinoline-4-carboxylic acid [(S)-cyclopropyl-(3-fluoro-phenyl)-methyl]-amide] | – | 21 nM | 9.8 nM
14 | Cc1c(C(=O)N[C@H](c2cccc(F)c2)C2CC2)c2cccc(F)c2c(=O)n1C[C@@H]1CCCN1C [Example 7a, 8-Fluoro-3-methyl-2-((S)-1-methyl-pyrrolidin-2-ylmethyl)-1-oxo-1,2-dihydro-isoquinoline-4-carboxylic acid [(S)-cyclopropyl-(3-fluoro-phenyl)-methyl]-amide] | – | 130 nM | 78 nM
15 | Cc1c(C(=O)N[C@H](c2cccc(F)c2)C2CC2)c2cccc(F)c2c(=O)n1[C@@H]1CCN(C)C1 [Example 7i, 8-Fluoro-3-methyl-2-((R)-1-methyl-pyrrolidin-3-yl)-1-oxo-1,2-dihydro-isoquinoline-4-carboxylic acid [(S)-cyclopropyl-(3-fluoro-phenyl)-methyl]-amide] | – | 660 nM | 90 nM
16 | CCCNn1c(C)c(C(=O)N[C@H](c2ccc(F)cc2)C2CCC2)c2cccc(F)c2c1=O [Example 8c] | 0.046 | – | –
17 | Cc1c(C(=O)N[C@H](c2cccc(F)c2)C2CCC2)c2cccc(F)c2c(=O)n1NCCCF [Example 10a, 8-Fluoro-2-(3-fluoro-propylamino)-3-methyl-1-oxo-1,2-dihydro-isoqunoline-4-carboxylic acid [(S)-cyclobutyl-(3-fluoro-phenyl)-methyl]-amide] | 0.089 | – | –
18 | CC[C@H](NC(=O)c1c(O)c(-c2ccccc2)nc2ccccc12)c1ccccc1 [Talnetant, talnetant, reference compound] | 0.006 | – | –
